Source: PubChem BioAssay AID179 (DTP/NCI, 2004)
Active and inactive are the calls of the source.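 The calls were made as follows: active = compounds giving half or more protection of infected cells from virus-caused growth loss, again on retest; inactive = the rest.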

Test system: CEM cells HIV-1 protection, formazan growth assay
Assay: NCI AIDS Antiviral Assay
Details: for IC50: measured here: growth of uninfected CEM cells
In short: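 Five concentrations of each compound were applied to infected and uninfected human CEM cells. Protection from HIV-1 was judged from growth measured with a soluble formazan assay.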

For `CN1C/C(=C\c2cccs2)c2[nH]c(=O)c(C#N)c(-c3cccs3)c2C1`, the EC50 was > 200 µM and the IC50 was > 200 µM.

`N#C/C(=C\N1CCNC1=S)C(=O)c1ccc2ccccc2c1` was tested, and the EC50 was > 200 µM and the IC50 was 151 µM.

With `O=C/C(=C(/Cl)c1ccc(O)cc1)c1ccccc1` the EC50 was > 115 µM and the IC50 was 49 µM.

In the case of `COC(=O)C(=O)C(C#N)c1cccc2ccccc12` (stereo not given), the outcome is reported as “inactive”.

`Cc1cc(S(=O)(=O)Nc2nc(N)nc(N3CCOCC3)n2)c(S)cc1Cl` was tested, and the EC50 was 61.7 µM and the IC50 was > 200 µM.

With `CC(=O)Oc1ccccc1C(=O)/C=C/c1ccccc1` the EC50 was > 132 µM and the IC50 was 12 µM.

In the case of `c1csc(-c2cscc2-c2cccs2)c1`, the EC50 is reported as > 200 µM and the IC50 is reported as 37.2 µM.

In the case of `CN(/N=C\c1ccccc1Cl)C(c1ccccc1Cl)N(C)/N=C/c1ccccc1Cl` (stereo not given), the outcome is reported as “inactive”.

For `CC(=O)OCC1OC(OC(C)=O)C(Nc2ncc(-c3ccc(C)cc3)s2)C(OC(C)=O)C1OC(C)=O` (stereo not given), the EC50 was > 200 µM and the IC50 was 13.2 µM.

For `Cc1ccc(C(=O)/C=C/c2ccco2)cc1`, the EC50 was > 170 µM and the IC50 was 53.7 µM.

`COc1ccc2nc(NC(=O)C(=O)C(C#N)c3ccc([N+](=O)[O-])cc3)sc2c1` (stereo not given) was tested, and the outcome was “inactive”.

For `O=C1OCC2C1C1c3ccccc3C(O)c3ccccc3C21` (stereo not given), the outcome was “inactive”.

`O=c1cc(-c2cccs2)ss1` showed an EC50 of 77.6 µM and an IC50 of 110 µM.

With `Cc1nc(Nc2ccccc2C)c2ccsc2n1` the EC50 was > 263 µM and the IC50 was > 263 µM.

In the case of `COc1ccc2c(C)c(CNc3ccccc3)c(=O)oc2c1OC`, the EC50 is reported as > 11 µM and the IC50 is reported as > 11 µM.

For `CCC(C)(C)/C(CC(O)(C(F)(F)F)C(F)(F)F)=N\O`, the EC50 was > 200 µM and the IC50 was > 200 µM.

`COC(=O)c1cnn2c1n[n+]([O-])c1ccccc12` was tested, and the EC50 was > 200 µM and the IC50 was > 200 µM.

With `OCC1OCOC2COCOC12` (stereo not given) the EC50 was > 200 µM and the IC50 was > 200 µM.

`CCc1cc(Cc2cc(CC)c(NC(=O)C3=CC(=O)CC(c4ccc(OC)cc4)O3)c(CC)c2Cl)c(Cl)c(CC)c1NC(=O)C1=CC(=O)CC(c2ccc(OC)cc2)O1` (stereo not given) was tested, and the outcome was “inactive”.

`NC(=Nc1ccc(S(=O)(=O)Nc2cnc3ccccc3n2)cc1)/N=C(/N)Nc1ccc(Br)cc1` was tested, and the EC50 was > 87.1 µM and the IC50 was > 87.1 µM.

`CCOC(=O)c1cc(C2(O)CCN(CC(C)CC)C2=O)c(-c2cc(C)no2)[nH]1` (stereo not given) was tested, and the EC50 was > 200 µM and the IC50 was > 200 µM.

In the case of `COc1cc2c(cc1OC)C(Cc1cc(OCc3ccccc3)c(OC)cc1N)N(C)CC2` (stereo not given), the outcome is reported as “inactive”.

`Cn1c2ccccc2c2oc(-c3nn[nH]n3)cc(=O)c21` was tested, and the EC50 was > 126 µM and the IC50 was > 126 µM.

With `CO[C@@H]1[C@H](O)CC[C@]2(CO2)[C@H]1[C@@]1(C)O[C@@H]1CC=C(C)C` the EC50 was > 200 µM and the IC50 was 85.1 µM.

For `CCOC(=O)/C(N=O)=C(/O)CC(C)C`, the EC50 was > 200 µM and the IC50 was > 200 µM.

With `Cc1ccc2c(c1)CC1(C2)Cc2ccc(C)cc2C1=O` (stereo not given) the EC50 was > 200 µM and the IC50 was 23.4 µM.

In the case of `C[n+]1c(-c2ccc(/C=N\Nc3ccnc(N/N=C/c4ccc(-c5cn6ccsc6[n+]5C)cc4)n3)cc2)cn2ccsc21`, the EC50 is reported as > 41.7 µM and the IC50 is reported as 28.8 µM.

With `O=C1c2c(O)cc(O)c(OC3OC(CO)C(O)C(O)C3O)c2OC(c2ccc(O)c(O)c2)C1O` (stereo not given) the EC50 was > 513 µM and the IC50 was 57.5 µM.

`COc1ccc2c(c1)OC1c3ccccc3OCC21` (stereo not given) was tested, and the outcome was “inactive”.

For `OC(c1ccoc1)c1cc2ccccc2s1` (stereo not given), the EC50 was > 200 µM and the IC50 was 44.7 µM.

With `CCCC[PH+](CCCC)CCCC.[C-]#[O+].[C-]#[O+].[C-]#[O+].[C-]#[O+].[Fe]` the EC50 was > 200 µM and the IC50 was > 200 µM.

`COc1ccc(S(=O)(=O)N/N=C(\C)CN2C(=O)c3ccccc3C2=O)cc1OC` was tested, and the EC50 was > 437 µM and the IC50 was > 437 µM.

With `CCCCS(=O)(=O)CCC(N)P(=O)(O)O` (stereo not given) the EC50 was > 200 µM and the IC50 was > 200 µM.

With `COc1cc(OC)cc(-c2cc(=O)c3c(OC)c(OC)c(OC)c(OC)c3o2)c1` the EC50 was > 200 µM and the IC50 was 26.9 µM.

With `O=C1c2ccccc2Sc2ccccc2N1CCCCN1CCN(c2ccc(F)cc2)CC1` the EC50 was > 200 µM and the IC50 was > 200 µM.

In the case of `O=C1CSC(c2cccc([N+](=O)[O-])c2)N1c1ccc(-c2ccc(-n3c(-c4ccccc4)nc4ccccc4c3=O)cc2)cc1` (stereo not given), the EC50 is reported as > 200 µM and the IC50 is reported as 28.2 µM.

With `CC1(C)OCC2OC3(c4nc(C#N)c(N)o4)OC(C)(C)OC3C2O1` (stereo not given) the EC50 was > 50.1 µM and the IC50 was > 50.1 µM.

In the case of `O=C(CNC(=O)c1cnc2ccccc2n1)NCCCNC(=O)CNC(=O)c1cnc2ccccc2n1`, the EC50 is reported as > 100 µM and the IC50 is reported as > 100 µM.

With `O=c1cnn2c(n1)sc1ccc3ccccc3c12` the EC50 was > 50.1 µM and the IC50 was > 50.1 µM.

For `CCOC(=O)C12OC(CCC1=O)C(C(=O)OC)=C2C(=O)OC` (stereo not given), the EC50 was > 200 µM and the IC50 was > 200 µM.

For `[Zn+2].c1ccc(-c2c3nc(c(-c4ccccc4)c4[n-]c(c(-c5ccccc5)c5nc(c(-c6ccccc6)c6[n-]c2c2ccccc62)-c2ccccc2-5)c2ccccc42)-c2ccccc2-3)cc1`, the EC50 was > 50.1 µM and the IC50 was > 50.1 µM.

`S=C(N/N=C/c1ccccc1)NC1CC(c2ccccc2)Oc2ccccc21` (stereo not given) was tested, and the outcome was “inactive”.

`COc1ccc(C(=O)O)c2c(=O)c3ccccc3[nH]c12` was tested, and the outcome was “inactive”.

`O=C(O)CN(c1ccc(F)cc1)S(=O)(=O)c1ccccc1` was tested, and the outcome was “inactive”.

In the case of `CCOC(=O)/C(=C/n1c(=S)[nH]c2ccc([N+](=O)[O-])cc21)C(=O)c1ccccc1`, the EC50 is reported as > 200 µM and the IC50 is reported as 141 µM.
